The numbers were not newly measured in patent US6245354A, “Drug delivery system using galactoxyloglucan” (Dainippon Pharmaceutical Co., Ltd., priority 1996, dated 2001), which cites them from elsewhere.

Each structure is given as a SMILES string.

As to `CO[C@@]12[C@H](COC(N)=O)C3=C(C(=O)C(C)=C(N)C3=O)N1C[C@@H]1N[C@@H]12` [mitomycin C], under “administered into the abdominal cavity”, the “transfer to systemic circulation” value is on record as “rapidly transferred to a systemic circulation”. For the same compound, where the note is “peritoneal tumors, carcinomatous peritonitis, into the abdominal cavity”, the therapeutic effects result is “can not exhibit sufficient therapeutic effects”.
